Results: patent US7300946B2, “N-(substituted arylmethyl)-4-(disubstituted methyl) piperidines and pyridines” (Bayer CropScience AG, priority 2002, dated 2007)

test system: tobacco budworm (Heliothis virescens [Fabricius]); assay: surface-treated diet test against the tobacco budworm; type: in vivo; conditions: tobacco budworm second instar larvae; 0.25 millimoles of candidate insecticide on the surface of the diet; five-day exposure; compared to total number of insects infested
How it was run: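 Wheat germ artificial diet surface-treated with 40 µL of 50 mM DMSO stock diluted 1:7 in 1:1 water/acetone (0.25 millimolar on diet), or sub-multiples for rate tests. One second-instar larva per well, 25° C, 60% RH, 5 days; percent weight inhibition vs DMSO controls and percent mortality.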

SMILES	Percent Mortality
O=C(Nc1ccc(Cl)cc1)OC(c1ccc(F)cc1)C1CCN(Cc2ccc(Oc3ncccn3)cc2)CC1 (stereo not drawn) [Compound 715]	100%
O=C(Nc1cc(F)cc(F)c1)OC(c1ccc(Cl)cc1Cl)C1CCN(Cc2ccc(Oc3ncccn3)cc2)CC1 (stereo not drawn) [Compound 720]	100%
O=C(Nc1cc(F)cc(F)c1)OC(c1ccc(C(F)(F)F)cc1)C1CCN(Cc2ccc(Oc3ncncn3)cc2)CC1 (stereo not drawn) [Compound 739]	0%
CNC(=S)OC(c1ccc(C(F)(F)F)cc1)C1CCN(Cc2ccc(Oc3ccccn3)cc2)CC1 (stereo not drawn) [Compound 772]	0%
CC(C)S(=O)(=O)Oc1ccc(CN2CCC(=C(c3ccc(C(F)(F)F)cc3)c3ccc(C(F)(F)F)cc3)CC2)cc1 [Compound 804]	100%
Fc1ccccc1Oc1ccc(CN2CCC(=C(c3ccc(C(F)(F)F)cc3)c3ccc(C(F)(F)F)cc3)CC2)cc1 [Compound 806]	0%
CC(C)NC(=O)Oc1ccc(C[N+]2([O-])CCC(=C(c3ccc(C(F)(F)F)cc3)c3ccc(C(F)(F)F)cc3)CC2)cc1 (stereo not drawn) [Compound 830]	100%
CCON=Cc1ccc(CN2CCC(C(OC(=O)N(C)C)c3ccc(C(F)(F)F)cc3)CC2)cc1 (stereo not drawn) [Compound 773]	100%
CC(C)OC(=O)Nc1ccc(C[N+]2([O-])CCC(=C(c3ccc(Cl)c(Cl)c3)c3ccc(Cl)c(Cl)c3)CC2)cc1 (stereo not drawn) [Compound 833]	100%
COC(=O)C(NC(=O)OC(c1ccc(C(F)(F)F)cc1)C1CCN(Cc2ccc(Oc3ccccn3)cc2)CC1)C(C)C (stereo not drawn) [Compound 784]	100%
CC=CCOC(=O)Nc1ccc(C[N+]2([O-])CCC(=C(c3ccc(C(F)(F)F)cc3)c3ccc(C(F)(F)F)cc3)CC2)cc1 (stereo not drawn) [Compound 837]	100%

same assay, conditions: tobacco budworm second instar larvae; 0.25 millimoles of candidate insecticide on the surface of the diet; five-day exposure; inhibition of insect weight relative to untreated controls

SMILES	Percent Growth Inhibition
O=C(Nc1ccc(Cl)cc1)OC(c1ccc(F)cc1)C1CCN(Cc2ccc(Oc3ncccn3)cc2)CC1 (stereo not drawn) [Compound 715]	100%
O=C(Nc1cc(F)cc(F)c1)OC(c1ccc(Cl)cc1Cl)C1CCN(Cc2ccc(Oc3ncccn3)cc2)CC1 (stereo not drawn) [Compound 720]	100%
O=C(Nc1cc(F)cc(F)c1)OC(c1ccc(C(F)(F)F)cc1)C1CCN(Cc2ccc(Oc3ncncn3)cc2)CC1 (stereo not drawn) [Compound 739]	100%
CNC(=S)OC(c1ccc(C(F)(F)F)cc1)C1CCN(Cc2ccc(Oc3ccccn3)cc2)CC1 (stereo not drawn) [Compound 772]	78%
CC(C)S(=O)(=O)Oc1ccc(CN2CCC(=C(c3ccc(C(F)(F)F)cc3)c3ccc(C(F)(F)F)cc3)CC2)cc1 [Compound 804]	100%
Fc1ccccc1Oc1ccc(CN2CCC(=C(c3ccc(C(F)(F)F)cc3)c3ccc(C(F)(F)F)cc3)CC2)cc1 [Compound 806]	100%
CC(C)NC(=O)Oc1ccc(C[N+]2([O-])CCC(=C(c3ccc(C(F)(F)F)cc3)c3ccc(C(F)(F)F)cc3)CC2)cc1 (stereo not drawn) [Compound 830]	100%
CCON=Cc1ccc(CN2CCC(C(OC(=O)N(C)C)c3ccc(C(F)(F)F)cc3)CC2)cc1 (stereo not drawn) [Compound 773]	100%
CC(C)OC(=O)Nc1ccc(C[N+]2([O-])CCC(=C(c3ccc(Cl)c(Cl)c3)c3ccc(Cl)c(Cl)c3)CC2)cc1 (stereo not drawn) [Compound 833]	100%
COC(=O)C(NC(=O)OC(c1ccc(C(F)(F)F)cc1)C1CCN(Cc2ccc(Oc3ccccn3)cc2)CC1)C(C)C (stereo not drawn) [Compound 784]	100%
CC=CCOC(=O)Nc1ccc(C[N+]2([O-])CCC(=C(c3ccc(C(F)(F)F)cc3)c3ccc(C(F)(F)F)cc3)CC2)cc1 (stereo not drawn) [Compound 837]	100%

same assay, conditions: tobacco budworm second instar larvae; surface-treated diet; 0.25 millimoles of candidate insecticide on the surface of the diet; five-day exposure; compared to total number of insects infested

SMILES	Percent Mortality
Cn1nnc(-c2ccc(CN3CCC(C(NC(=O)Nc4ccc([N+](=O)[O-])cc4)c4ccc(OC(F)(F)F)cc4)CC3)cc2)n1 (stereo not drawn) [Compound 346]	100%
Cc1ccc(NC(=O)NC(c2ccc(OC(F)(F)F)cc2)C2CCN(Cc3ccc(-c4nnn(C)n4)cc3)CC2)cc1 (stereo not drawn) [Compound 342]	100%
CCCOc1ccc(CN2CCC(C(OC(=O)Nc3ccc(F)cc3)c3cccc(C(F)(F)F)c3)CC2)cc1 (stereo not drawn) [Compound 486]	100%
O=C(Nc1cccc(C(F)(F)F)c1)OC(c1ccc(Cl)c(Cl)c1)C1CCN(Cc2ccc(Oc3ccccn3)cc2)CC1 (stereo not drawn) [Compound 650]	100%
O=C(Nc1ccc(Cl)cc1)OC(c1ccc(C(F)(F)F)cc1)C1CCN(Cc2ccc(O)cc2)CC1 (stereo not drawn) [Compound 463]	0%
CN(C)C(=O)Nc1ccc(CN2CCC(C(OC(=O)Nc3cc(F)cc(F)c3)c3ccc(C(F)(F)F)cc3)CC2)cc1 (stereo not drawn) [Compound 519]	17%
COC(=O)Nc1ccc(CN2CCC(=C(c3ccc(C(F)(F)F)cc3)c3ccc(C(F)(F)F)cc3)CC2)cc1 [Compound 54]	100%
O=C(Nc1cc(F)cc(F)c1)OC(c1ccc(C(F)(F)F)cc1)C1CCN(Cc2ccc(-n3cncn3)cc2)CC1 (stereo not drawn) [Compound 558]	17%
CCn1nnc(-c2ccc(CN3CCC(C(OC(=O)Nc4cc(F)cc(F)c4)c4cc(Cl)cc(Cl)c4)CC3)cc2)n1 (stereo not drawn) [Compound 580]	100%
CCn1nnc(-c2ccc(CN3CCC(C(OC(=O)Nc4cc(F)cc(F)c4)c4ccc(Oc5ccccc5)cc4)CC3)cc2)n1 (stereo not drawn) [Compound 619]	17%
N#Cc1ccc(NC(=O)OC(c2ccc(C(F)(F)F)cc2)C2CCN(Cc3ccc(Oc4ccccn4)cc3)CC2)cn1 (stereo not drawn) [Compound 446]	17%
O=C(Nc1cc(F)cc(F)c1)OC(c1ccc(C(F)(F)F)cc1)C1CCN(Cc2ccc(Oc3ncccc3C(F)(F)F)cc2)CC1 (stereo not drawn) [Compound 689]	100%
Cn1nnc(-c2ccc(CN3CCC(C(NCc4ccc(OC(F)(F)F)cc4)c4ccc(OC(F)(F)F)cc4)CC3)cc2)n1 (stereo not drawn) [Compound 319]	100%

same assay, conditions: tobacco budworm second instar larvae; surface-treated diet; 0.25 millimoles of candidate insecticide on the surface of the diet; five-day exposure; inhibition of insect weight relative to untreated controls

SMILES	Percent Growth Inhibition
Cn1nnc(-c2ccc(CN3CCC(C(NC(=O)Nc4ccc([N+](=O)[O-])cc4)c4ccc(OC(F)(F)F)cc4)CC3)cc2)n1 (stereo not drawn) [Compound 346]	100%
Cc1ccc(NC(=O)NC(c2ccc(OC(F)(F)F)cc2)C2CCN(Cc3ccc(-c4nnn(C)n4)cc3)CC2)cc1 (stereo not drawn) [Compound 342]	100%
CCCOc1ccc(CN2CCC(C(OC(=O)Nc3ccc(F)cc3)c3cccc(C(F)(F)F)c3)CC2)cc1 (stereo not drawn) [Compound 486]	100%
O=C(Nc1cccc(C(F)(F)F)c1)OC(c1ccc(Cl)c(Cl)c1)C1CCN(Cc2ccc(Oc3ccccn3)cc2)CC1 (stereo not drawn) [Compound 650]	100%
O=C(Nc1ccc(Cl)cc1)OC(c1ccc(C(F)(F)F)cc1)C1CCN(Cc2ccc(O)cc2)CC1 (stereo not drawn) [Compound 463]	65%
CN(C)C(=O)Nc1ccc(CN2CCC(C(OC(=O)Nc3cc(F)cc(F)c3)c3ccc(C(F)(F)F)cc3)CC2)cc1 (stereo not drawn) [Compound 519]	93%
COC(=O)Nc1ccc(CN2CCC(=C(c3ccc(C(F)(F)F)cc3)c3ccc(C(F)(F)F)cc3)CC2)cc1 [Compound 54]	100%
O=C(Nc1cc(F)cc(F)c1)OC(c1ccc(C(F)(F)F)cc1)C1CCN(Cc2ccc(-n3cncn3)cc2)CC1 (stereo not drawn) [Compound 558]	99%
CCn1nnc(-c2ccc(CN3CCC(C(OC(=O)Nc4cc(F)cc(F)c4)c4cc(Cl)cc(Cl)c4)CC3)cc2)n1 (stereo not drawn) [Compound 580]	100%
CCn1nnc(-c2ccc(CN3CCC(C(OC(=O)Nc4cc(F)cc(F)c4)c4ccc(Oc5ccccc5)cc4)CC3)cc2)n1 (stereo not drawn) [Compound 619]	100%
N#Cc1ccc(NC(=O)OC(c2ccc(C(F)(F)F)cc2)C2CCN(Cc3ccc(Oc4ccccn4)cc3)CC2)cn1 (stereo not drawn) [Compound 446]	100%
O=C(Nc1cc(F)cc(F)c1)OC(c1ccc(C(F)(F)F)cc1)C1CCN(Cc2ccc(Oc3ncccc3C(F)(F)F)cc2)CC1 (stereo not drawn) [Compound 689]	100%
Cn1nnc(-c2ccc(CN3CCC(C(NCc4ccc(OC(F)(F)F)cc4)c4ccc(OC(F)(F)F)cc4)CC3)cc2)n1 (stereo not drawn) [Compound 319]	100%
